Assay results reported in US12077503B2, “Substituted cyclic amides and their use as herbicides” (FMC CORPORATION, priority 2015, dated 2024).

Assays:
Type in all cases: in vivo
[1] = system: ducksalad (Heteranthera limosa); test: Test B flooded paddy test; conditions: Flood, 250 g ai/ha; 0 to 100 scale where 0 is no effect and 100 is complete control; 13 to 15 d
How it was run: (§1)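 Flooding to 3 cm over soil accompanied treatment, which consisted of adding compound to the standing water around 2-leaf plants; depth was then maintained. Visual assessment versus controls followed at 13 to 15 d (scale 0–100, 0 meaning no effect).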

[2] = system: barnyardgrass (Echinochloa crus-galli); test: Test B flooded paddy test; conditions: Flood, 250 g ai/ha; 0 to 100 scale where 0 is no effect and 100 is complete control; 13 to 15 d
How it was run: as §1

rice (Oryra sativa) = test: Test B flooded paddy test; conditions: Flood, 250 g ai/ha; 0 to 100 scale where 0 is no effect and 100 is complete control; 13 to 15 d
How it was run: as §1

[3] = system: sedge, umbrella (small-flower umbrella sedge, Cyperus difformis); test: Test B flooded paddy test; conditions: Flood, 250 g ai/ha; 0 to 100 scale where 0 is no effect and 100 is complete control; 13 to 15 d
How it was run: as §1

[4] = system: giant foxtail (Setaria faberii); test: Test A preemergence; conditions: for Plant response rating, Foxtail, Giant: 125 g ai/ha, preemergence, 0 to 100 scale (0 no effect, 100 complete control); for Foxtail, Giant plant response rating (0 to 100 scale, 0 is no effect, 100 is complete control): Preemergence, 500 g ai/ha, visual injury approx. 10 d
How it was run: (§2)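 Compounds were formulated in a non-phytotoxic solvent mixture with surfactant and applied as a preemergence directed soil spray after seeding, or sprayed postemergence over plants 2 to 10 cm tall at the one- to two-leaf stage. Evaluation after about 10 d compared treated with untreated controls, using a scale from 0 (no effect) to 100 (complete control).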

[5] = system: barnyardgrass (Echinochloa crus-galli); test: Test A preemergence; conditions: for Plant response rating, Barnyardgrass: 125 g ai/ha, preemergence, 0 to 100 scale (0 no effect, 100 complete control); for Barnyardgrass plant response rating (0 to 100 scale, 0 is no effect, 100 is complete control): Preemergence, 500 g ai/ha, visual injury approx. 10 d
How it was run: as §2

[6] = system: ryegrass, Italian (Italian ryegrass, Lolium multiflorum); test: Test A preemergence; conditions: for Plant response rating, Ryegrass, Italian: 125 g ai/ha, preemergence, 0 to 100 scale (0 no effect, 100 complete control); for Ryegrass, Italian plant response rating (0 to 100 scale, 0 is no effect, 100 is complete control): Preemergence, 500 g ai/ha, visual injury approx. 10 d
How it was run: as §2

[7] = system: pigweed (Amaranthus retroflexus); test: Test A preemergence; conditions: for Plant response rating, Pigweed: 125 g ai/ha, preemergence, 0 to 100 scale (0 no effect, 100 complete control); for Pigweed plant response rating (0 to 100 scale, 0 is no effect, 100 is complete control): Preemergence, 500 g ai/ha, visual injury approx. 10 d
Kochia (Kochia scoparia) [8] = test: Test A preemergence; conditions: for Plant response rating, Kochia: 125 g ai/ha, preemergence, 0 to 100 scale (0 no effect, 100 complete control); for Kochia plant response rating (0 to 100 scale, 0 is no effect, 100 is complete control): Preemergence, 500 g ai/ha, visual injury approx. 10 d
How it was run: as §2

[9] = system: ragweed (common ragweed, Ambrosia elatior); test: Test A preemergence; conditions: for Plant response rating, Ragweed: 125 g ai/ha, preemergence, 0 to 100 scale (0 no effect, 100 complete control); for Ragweed plant response rating (0 to 100 scale, 0 is no effect, 100 is complete control): Preemergence, 500 g ai/ha, visual injury approx. 10 d
How it was run: as §2

[10] = system: giant foxtail (Setaria faberii); test: Test A postemergence; conditions: postemergence; for Foxtail, Giant plant response rating: 125 g ai/ha, visual injury rating on 0 to 100 scale (0 no effect, 100 complete control), approx. 10 d; for Plant response rating, Foxtail, Giant: 500 g ai/ha, 0 to 100 scale, 0 no effect, 100 complete control
How it was run: as §2

[11] = system: Galium (catchweed bedstraw, Galium aparine); test: Test A postemergence; conditions: postemergence; for Galium plant response rating: 125 g ai/ha, visual injury rating on 0 to 100 scale (0 no effect, 100 complete control), approx. 10 d; for Plant response rating, Galium: 500 g ai/ha, 0 to 100 scale, 0 no effect, 100 complete control
How it was run: as §2

[12] = system: barnyardgrass (Echinochloa crus-galli); test: Test A postemergence; conditions: postemergence; for Barnyardgrass plant response rating: 125 g ai/ha, visual injury rating on 0 to 100 scale (0 no effect, 100 complete control), approx. 10 d; for Plant response rating, Barnyardgrass: 500 g ai/ha, 0 to 100 scale, 0 no effect, 100 complete control
How it was run: as §2

[13] = system: ryegrass, Italian (Italian ryegrass, Lolium multiflorum); test: Test A postemergence; conditions: postemergence; for Ryegrass, Italian plant response rating: 125 g ai/ha, visual injury rating on 0 to 100 scale (0 no effect, 100 complete control), approx. 10 d; for Plant response rating, Ryegrass, Italian: 500 g ai/ha, 0 to 100 scale, 0 no effect, 100 complete control
How it was run: as §2

[14] = system: pigweed (Amaranthus retroflexus); test: Test A postemergence; conditions: postemergence; for Pigweed plant response rating: 125 g ai/ha, visual injury rating on 0 to 100 scale (0 no effect, 100 complete control), approx. 10 d; for Plant response rating, Pigweed: 500 g ai/ha, 0 to 100 scale, 0 no effect, 100 complete control
How it was run: as §2

corn (Zea mays) = test: Test A postemergence; conditions: postemergence; for Corn plant response rating: 125 g ai/ha, visual injury rating on 0 to 100 scale (0 no effect, 100 complete control), approx. 10 d; for Plant response rating, Corn: 500 g ai/ha, 0 to 100 scale, 0 no effect, 100 complete control
How it was run: as §2

Kochia (Kochia scoparia) [15] = test: Test A postemergence; conditions: postemergence; for Kochia plant response rating: 125 g ai/ha, visual injury rating on 0 to 100 scale (0 no effect, 100 complete control), approx. 10 d; for Plant response rating, Kochia: 500 g ai/ha, 0 to 100 scale, 0 no effect, 100 complete control
How it was run: as §2

[16] = system: blackgrass (Alopecurus myosuroides); test: Test A postemergence; conditions: postemergence; for Blackgrass plant response rating: 125 g ai/ha, visual injury rating on 0 to 100 scale (0 no effect, 100 complete control), approx. 10 d; for Plant response rating, Blackgrass: 500 g ai/ha, 0 to 100 scale, 0 no effect, 100 complete control
How it was run: as §2

[17] = system: wheat (Triticum aestivum); test: Test A postemergence; conditions: postemergence; for Wheat plant response rating: 125 g ai/ha, visual injury rating on 0 to 100 scale (0 no effect, 100 complete control), approx. 10 d; for Plant response rating, Wheat: 500 g ai/ha, 0 to 100 scale, 0 no effect, 100 complete control
How it was run: as §2

[18] = system: ragweed (common ragweed, Ambrosia elatior); test: Test A postemergence; conditions: postemergence; for Ragweed plant response rating: 125 g ai/ha, visual injury rating on 0 to 100 scale (0 no effect, 100 complete control), approx. 10 d; for Plant response rating, Ragweed: 500 g ai/ha, 0 to 100 scale, 0 no effect, 100 complete control
How it was run: as §2

| SMILES | Plant response rating, Ducksalad [1] | Plant response rating, Barnyardgrass [2] | Plant response rating, Rice (rice (Oryra sativa)) | Plant response rating, Sedge, Umbrella [3] | Plant response rating, Foxtail, Giant [4] | Foxtail, Giant plant response rating (0 to 100 scale, 0 is no effect, 100 is complete control) [4] | Plant response rating, Barnyardgrass [5] | Barnyardgrass plant response rating (0 to 100 scale, 0 is no effect, 100 is complete control) [5] | Plant response rating, Ryegrass, Italian [6] | Ryegrass, Italian plant response rating (0 to 100 scale, 0 is no effect, 100 is complete control) [6] | Plant response rating, Pigweed [7] | Pigweed plant response rating (0 to 100 scale, 0 is no effect, 100 is complete control) [7] | Plant response rating, Kochia (Kochia (Kochia scoparia) [8]) | Kochia plant response rating (0 to 100 scale, 0 is no effect, 100 is complete control) (Kochia (Kochia scoparia) [8]) | Plant response rating, Ragweed [9] | Ragweed plant response rating (0 to 100 scale, 0 is no effect, 100 is complete control) [9] | Foxtail, Giant plant response rating [10] | Plant response rating, Foxtail, Giant [10] | Galium plant response rating [11] | Plant response rating, Galium [11] | also measured |
| --- | --- | --- | --- | --- | --- | --- | --- | --- | --- | --- | --- | --- | --- | --- | --- | --- | --- | --- | --- | --- | --- |
| CN1CC(c2ccc(F)cc2)C(C(=O)Nc2ccc(F)cc2F)C1=O (stereo not drawn) [Compound 440] | 95 | 70 | 0 | 0 | 90 | 100 | 90 | 100 | 0 | 50 | 20 | 80 | 60 | 70 | 20 | 40 | 90 | 90 | 40 | 40 | Barnyardgrass plant response rating [12]: 90; Plant response rating, Barnyardgrass [12]: 90; Ryegrass, Italian plant response rating [13]: 0; Plant response rating, Ryegrass, Italian [13]: 60; Pigweed plant response rating [14]: 0; Plant response rating, Pigweed [14]: 20; Corn plant response rating (corn (Zea mays)): 0; Plant response rating, Corn (corn (Zea mays)): 20; Kochia plant response rating (Kochia (Kochia scoparia) [15]): 30; Plant response rating, Kochia (Kochia (Kochia scoparia) [15]): 40; Blackgrass plant response rating [16]: 30; Plant response rating, Blackgrass [16]: 50; Wheat plant response rating [17]: 0; Plant response rating, Wheat [17]: 50; Ragweed plant response rating [18]: 0; Plant response rating, Ragweed [18]: 0 |
| CN1CC(c2ccc3c(c2)OC(F)(F)O3)C(C(=O)Nc2cccc(F)c2F)C1=O (stereo not drawn) [Compound 442] | 100 | 75 | 0 | 0 | 90 | 90 | 90 | 90 | 60 | 80 | 70 | 80 | 80 | 90 | 20 | 60 | 80 | 80 | 60 | 60 | Barnyardgrass plant response rating [12]: 80; Plant response rating, Barnyardgrass [12]: 90; Ryegrass, Italian plant response rating [13]: 60; Plant response rating, Ryegrass, Italian [13]: 80; Pigweed plant response rating [14]: 60; Plant response rating, Pigweed [14]: 70; Corn plant response rating (corn (Zea mays)): 50; Plant response rating, Corn (corn (Zea mays)): 70; Kochia plant response rating (Kochia (Kochia scoparia) [15]): 20; Plant response rating, Kochia (Kochia (Kochia scoparia) [15]): 60; Blackgrass plant response rating [16]: 60; Plant response rating, Blackgrass [16]: 70; Wheat plant response rating [17]: 40; Plant response rating, Wheat [17]: 70; Ragweed plant response rating [18]: 0; Plant response rating, Ragweed [18]: 40 |
| CN1CC(c2ccc3c(c2)OC(F)(F)O3)C(C(=O)Nc2ccccc2S(C)(=O)=O)C1=O (stereo not drawn) [Compound 443] | 80 | 70 | 0 | 0 | 90 | 90 | 90 | 90 | 40 | 50 | 80 | 90 | 30 | 80 | 80 | 80 | 80 | 80 | 40 | 50 | Barnyardgrass plant response rating [12]: 80; Plant response rating, Barnyardgrass [12]: 80; Ryegrass, Italian plant response rating [13]: 30; Plant response rating, Ryegrass, Italian [13]: 60; Pigweed plant response rating [14]: 20; Plant response rating, Pigweed [14]: 50; Corn plant response rating (corn (Zea mays)): 40; Plant response rating, Corn (corn (Zea mays)): 80; Kochia plant response rating (Kochia (Kochia scoparia) [15]): 20; Plant response rating, Kochia (Kochia (Kochia scoparia) [15]): 30; Blackgrass plant response rating [16]: 60; Plant response rating, Blackgrass [16]: 70; Wheat plant response rating [17]: 40; Plant response rating, Wheat [17]: 60; Ragweed plant response rating [18]: 20; Plant response rating, Ragweed [18]: 20 |
| O=C1NCC(c2ccc(Br)cc2)C1C(=O)Nc1ccccc1F (stereo not drawn) [Compound 448] | 95 | 40 | 0 | 0 | 90 | 90 | 90 | 90 | 0 | 20 | 20 | 40 | 20 | 50 | 0 | 20 | 60 | 80 | 30 | 50 | Barnyardgrass plant response rating [12]: 80; Plant response rating, Barnyardgrass [12]: 90; Ryegrass, Italian plant response rating [13]: 0; Plant response rating, Ryegrass, Italian [13]: 20; Pigweed plant response rating [14]: 20; Plant response rating, Pigweed [14]: 40; Corn plant response rating (corn (Zea mays)): 0; Plant response rating, Corn (corn (Zea mays)): 0; Kochia plant response rating (Kochia (Kochia scoparia) [15]): 30; Plant response rating, Kochia (Kochia (Kochia scoparia) [15]): 50; Blackgrass plant response rating [16]: 0; Plant response rating, Blackgrass [16]: 30; Wheat plant response rating [17]: 0; Plant response rating, Wheat [17]: 0; Ragweed plant response rating [18]: 0; Plant response rating, Ragweed [18]: 0 |
| O=C(Nc1cccc(F)c1F)C1C(=S)NCC1c1cccc(C(F)(F)F)c1 (stereo not drawn) [Compound 454] | 60 | 40 | 15 | 0 | 80 | 90 | 70 | 80 | 0 | 30 | 0 | 0 | 0 | 0 | 0 | 0 | 70 | 80 | 0 | 30 | Barnyardgrass plant response rating [12]: 60; Plant response rating, Barnyardgrass [12]: 80; Ryegrass, Italian plant response rating [13]: 0; Plant response rating, Ryegrass, Italian [13]: 40; Pigweed plant response rating [14]: 0; Plant response rating, Pigweed [14]: 0; Corn plant response rating (corn (Zea mays)): 50; Plant response rating, Corn (corn (Zea mays)): 70; Kochia plant response rating (Kochia (Kochia scoparia) [15]): 0; Plant response rating, Kochia (Kochia (Kochia scoparia) [15]): 0; Blackgrass plant response rating [16]: 0; Plant response rating, Blackgrass [16]: 50; Wheat plant response rating [17]: 20; Plant response rating, Wheat [17]: 40; Ragweed plant response rating [18]: 0; Plant response rating, Ragweed [18]: 0 |
